According to US20130204033A1, “ANTIPROLIFERATIVE COMPOUNDS, CONJUGATES THEREOF, METHODS THEREFOR, AND USES THEREOF” (Medarex, Inc., priority 2009, published 2013):
Like-named read-outs stand apart in the source and are kept apart here.

Columns and labels:
Assay type in all cases: cell-based, human
A2058 = assay: 3H thymidine proliferation assay, A2058; settings: 3H thymidine method, 72 h incubation
Procedure, shortened: (§1)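 Cells seeded at 1.0×10^4 cells/well for 3 h, then exposed to 1:3 serial dilutions of free compounds or conjugates for 72 h. 1.0 μCi ^3H-thymidine per well was added for the last 24 h, and incorporation was read by scintillation counting. EC50 is the concentration reducing proliferation by 50%.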

A549 = assay: 3H thymidine proliferation assay, A549
Procedure, shortened: as §1

PC3 [1] = assay: 3H thymidine proliferation assay, PC3
Procedure, shortened: as §1

SKOV3 = assay: 3H thymidine proliferation assay, SKOV3
Procedure, shortened: as §1

UO-31 = assay: 3H thymidine proliferation assay, UO-31
Procedure, shortened: as §1

H740 = assay: 3H thymidine proliferation assay, H740
Procedure, shortened: as §1

SK-BR3 = assay: 3H thymidine proliferation assay, SK-BR3; settings: 3H thymidine method, 72 h incubation
Procedure, shortened: as §1

OVCAR3 [2] = assay: 3H thymidine proliferation assay, OVCAR3
Procedure, shortened: as §1

HL-60 = assay: 3H thymidine proliferation assay, HL-60
Procedure, shortened: as §1

Raji [3] = assay: 3H thymidine proliferation assay, Raji
Procedure, shortened: as §1

HCT-15 = assay: ATP luminescence proliferation assay, HCT-15
Procedure, shortened: (§2)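 Cells seeded at 1.0×10^3 cells/well for 3 h, then exposed to 1:3 serial dilutions of free compounds or conjugates for 48, 72 or 96 h as noted. ATP measured by Glo luminescent viability kit; EC50 taken as concentration reducing proliferation by 50%.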

U-87 MG = assay: ATP luminescence proliferation assay, U-87 MG
Procedure, shortened: as §2

NCI-H460 = assay: ATP luminescence proliferation assay, NCI-H460
Procedure, shortened: as §2

PC3 [4] = assay: ATP luminescence proliferation assay, PC3
Procedure, shortened: as §2

ZR-75 = assay: ATP luminescence proliferation assay, ZR-75
Procedure, shortened: as §2

OVCAR3 [5] = assay: ATP luminescence proliferation assay, OVCAR3
Procedure, shortened: as §2

CEM-Cl = assay: ATP luminescence proliferation assay, CEM-C1
Procedure, shortened: as §2

RPMI-8226 = assay: ATP luminescence proliferation assay, RPMI-8226
Procedure, shortened: as §2

Raji [6] = assay: ATP luminescence proliferation assay, Raji
Procedure, shortened: as §2

SW-620 = assay: ATP luminescence proliferation assay, SW-620
Procedure, shortened: as §2

[7] = Homo sapiens, A549, read-out: EC50, A549, 3H thymidine method, 72 h incubation
[8] = Homo sapiens, PC-3, read-out: EC50, PC3, 3H thymidine method, 72 h incubation
[9] = Homo sapiens, SK-OV-3, read-out: EC50, SKOV3, 3H thymidine method, 72 h incubation
[10] = Homo sapiens, UO-31, read-out: EC50, UO-31, 3H thymidine method, 72 h incubation
[11] = Homo sapiens, read-out: EC50, H740, 3H thymidine method, 72 h incubation
[12] = Homo sapiens, OVCAR-3, read-out: EC50, OVCAR3, 3H thymidine method, 72 h incubation
[13] = Homo sapiens, HL-60, read-out: EC50, HL-60, 3H thymidine method, 72 h incubation
[14] = Homo sapiens, Raji, read-out: EC50, Raji, 3H thymidine method, 72 h incubation
[15] = Homo sapiens, HCT-15, 72 h, read-out: EC50 HCT-15 (72 h), ATP luminescence, HCT-15, 72 h incubation
[16] = Homo sapiens, 72 h, read-out: EC50 U-87 MG (72 h), ATP luminescence, U-87 MG, 72 h incubation
[17] = Homo sapiens, NCI-H460, 72 h, read-out: EC50 NCI-H460 (72 h), ATP luminescence, NCI-H460, 72 h incubation
[18] = Homo sapiens, PC-3, 48 h, read-out: EC50 PC3 (48 h), ATP luminescence, PC3, 48 h incubation
[19] = Homo sapiens, ZR75, 48 h, read-out: EC50 ZR-75 (48 h), ATP luminescence, ZR-75, 48 h incubation
[20] = Homo sapiens, OVCAR-3, 48 h, read-out: EC50 OVCAR3 (48 h), ATP luminescence, OVCAR3, 48 h incubation
[21] = Homo sapiens, CEM/C1, 72 h, read-out: EC50 CEM-C1 (72 h), ATP luminescence, CEM-C1, 72 h incubation
[22] = Homo sapiens, RPMI-8226, 72 h, read-out: EC50 RPMI-8226 (72 h), ATP luminescence, RPMI-8226, 72 h incubation
[23] = Homo sapiens, 72 h, read-out: EC50 Raji (72 h), ATP luminescence, Raji, 72 h incubation
[24] = Homo sapiens, SW-620, 96 h, read-out: EC50 SW-620 (96 h), ATP luminescence, SW-620, 96 h incubation
[25] = 3H thymidine method, 72 h incubation, read-out: EC50, A549
[26] = 3H thymidine method, 72 h incubation, read-out: EC50, PC3
[27] = 3H thymidine method, 72 h incubation, read-out: EC50, SKOV3
[28] = 3H thymidine method, 72 h incubation, read-out: EC50, UO-31
[29] = 3H thymidine method, 72 h incubation, read-out: EC50, H740
[30] = 3H thymidine method, 72 h incubation, read-out: EC50, OVCAR3
[31] = 3H thymidine method, 72 h incubation, read-out: EC50, HL-60
[32] = 3H thymidine method, 72 h incubation, read-out: EC50, Raji
[33] = ATP luminescence, 72 h incubation, read-out: EC50 U-87 MG (72 h)
[34] = ATP luminescence, PC3, 48 h incubation, read-out: EC50 PC3 (48 h)
[35] = ATP luminescence, ZR-75, 48 h incubation, read-out: EC50 ZR-75 (48 h)
[36] = ATP luminescence, OVCAR3, 48 h incubation, read-out: EC50 OVCAR3 (48 h)
[37] = ATP luminescence, CEM-C1, 72 h incubation, read-out: EC50 CEM-C1 (72 h)
[38] = ATP luminescence, RPMI-8226, 72 h incubation, read-out: EC50 RPMI-8226 (72 h)
[39] = ATP luminescence, 72 h incubation, read-out: EC50 Raji (72 h)
[40] = ATP luminescence, SW-620, 96 h incubation, read-out: EC50 SW-620 (96 h)

| SMILES | EC50 (A2058; Homo sapiens, A2058) | EC50 (A549; [7]) | EC50 (PC3 [1]; [8]) | EC50 (SKOV3; [9]) | EC50 (UO-31; [10]) | EC50 (H740; [11]) | EC50 (SK-BR3; Homo sapiens, SK-BR-3) | EC50 (OVCAR3 [2]; [12]) | EC50 (HL-60; [13]) | EC50 (Raji [3]; [14]) | EC50 (HCT-15; [15]) | EC50 (U-87 MG; [16]) | EC50 (NCI-H460; [17]) | EC50 (PC3 [4]; [18]) | EC50 (ZR-75; [19]) | EC50 (OVCAR3 [5]; [20]) | EC50 (CEM-Cl; [21]) | EC50 (RPMI-8226; [22]) | EC50 (Raji [6]; [23]) | EC50 (SW-620; [24]) | other results |
| --- | --- | --- | --- | --- | --- | --- | --- | --- | --- | --- | --- | --- | --- | --- | --- | --- | --- | --- | --- | --- | --- |
| CC[C@H](C)[C@H](NC(=O)[C@H]1CCCCN1C)C(=O)N(C)[C@H](C[C@@H](OC(C)=O)c1nc(C(=O)N[C@@H](Cc2ccc(N)cc2)CC(C)C(=O)O)cs1)C(C)C (some centres unmarked) [Compound 36] | 60 nM | 44 nM | 66 nM | 32 nM | > 100 nM | > 100 nM | > 100 nM | > 100 nM | 107 nM | 15 nM | 96 nM | 37 nM | 16 nM | 78 nM | > 300 nM | > 300 nM | 40 nM | 62 nM | 24 nM | 45 nM | – |
| CC[C@H](C)[C@H](NC(=O)[C@H]1CCCCN1C)C(=O)N(C)[C@H](C[C@@H](OC)c1nc(C(=O)N[C@@H](Cc2ccc(N)cc2)CC(C)C(=O)O)cs1)C(C)C (some centres unmarked) [Compound 51] | – | – | – | – | – | – | – | – | – | – | – | – | – | – | – | – | – | – | – | – | EC50 (A2058): 0.4 nM; EC50 (A549; [25]): 7.8 nM; EC50 (PC3 [1]; [26]): 5.6 nM; EC50 (SKOV3; [27]): 4.4 nM; EC50 (UO-31; [28]): 35 nM; EC50 (H740; [29]): 37 nM; EC50 (SK-BR3): > 100 nM; EC50 (OVCAR3 [2]; [30]): 2.5 nM; EC50 (HL-60; [31]): 4.2 nM; EC50 (Raji [3]; [32]): 1.5 nM; EC50 (HCT-15; ATP luminescence, HCT-15, 72 h incubation, read-out: EC50 HCT-15 (72 h)): 93 nM; EC50 (U-87 MG; [33]): 7.6 nM; EC50 (NCI-H460; ATP luminescence, NCI-H460, 72 h incubation, read-out: EC50 NCI-H460 (72 h)): 14 nM; EC50 (PC3 [4]; [34]): 16 nM; EC50 (ZR-75; [35]): 19 nM; EC50 (OVCAR3 [5]; [36]): 5.5 nM; EC50 (CEM-Cl; [37]): 4.8 nM; EC50 (RPMI-8226; [38]): 5.2 nM; EC50 (Raji [6]; [39]): 5 nM; EC50 (SW-620; [40]): 6.4 nM |
| CC[C@H](C)[C@H](NC(=O)[C@H]1CCCCN1C)C(=O)N(COC(=O)CC(C)C)[C@H](C[C@@H](OC(C)=O)c1nc(C(=O)N[C@@H](Cc2ccc(N)cc2)CC(C)C(=O)O)cs1)C(C)C (some centres unmarked) [Compound 54] | 0.64 nM | 0.24 nM | 0.82 nM | 0.34 nM | 1.3 nM | 10 nM | 1.1 nM | 3.9 nM | 0.53 nM | 0.2 nM | 2.6 nM | 1.6 nM | 1.6 nM | 3.1 nM | 9.6 nM | > 100 nM | 1.2 nM | 1.6 nM | 1.2 nM | 1.1 nM | – |
| CC[C@H](C)[C@H](NC(=O)[C@H]1CCCCN1C)C(=O)N(C)[C@H](C[C@@H](OC(C)=O)c1nc(C(=O)N[C@@H](Cc2ccc(N)cc2)C(=O)O)cs1)C(C)C [Compound 56] | – | – | – | – | – | – | – | – | – | – | – | – | – | – | – | – | – | – | – | – | EC50 (A2058): > 100 nM; EC50 (A549; [25]): > 100 nM; EC50 (PC3 [1]; [26]): > 100 nM; EC50 (SKOV3; [27]): > 100 nM; EC50 (UO-31; [28]): > 100 nM; EC50 (H740; [29]): > 100 nM; EC50 (SK-BR3): > 100 nM; EC50 (OVCAR3 [2]; [30]): > 100 nM; EC50 (HL-60; [31]): > 100 nM; EC50 (Raji [3]; [32]): > 100 nM; EC50 (HCT-15; ATP luminescence, HCT-15, 48 h incubation, read-out: EC50 HCT-15 (48 h)): > 3000 nM; EC50 (U-87 MG; [33]): > 100 nM; EC50 (NCI-H460; ATP luminescence, NCI-H460, 48 h incubation, read-out: EC50 NCI-H460 (48 h)): > 100 nM; EC50 (PC3 [4]; [34]): > 100 nM; EC50 (ZR-75; [35]): > 100 nM; EC50 (OVCAR3 [5]; [36]): > 100 nM; EC50 (CEM-Cl; [37]): > 100 nM; EC50 (RPMI-8226; [38]): 5.7 nM; EC50 (Raji [6]; [39]): 24 nM; EC50 (SW-620; [40]): 28 nM |
